# US11077141B2, “Anti-tumor T cell immunity induced by high dose radiation” (The Board of Trustees of the Leland Stanford Junior …, priority 2012, dated 2021)
# Tests used:
# CT26 tumors = assay: Survival of CT26 tumor-bearing RAG-2-/- mice given 30 Gy LTI with or without CY and T cells; format: in vivo, BALB/c RAG2-/- mice; conditions: 30 Gy LTI at day 21
# Protocol: Animals. Wild-type male BALB/c (H-2^d) mice, and male BALB/c RAG2^−/− mice, were purchased from Jackson Laboratories (Bar Harbor, Me.). Mice were 5-8 weeks old.
# Irradiation. Total body irradiation was performed with a Philips X-ray unit (200 kV, 10 mA; Philips Electronic Instruments Inc., Rahway, N.J.) at a rate of 84 cGy/min with a 0.5 mm Cu filter. For local tumor irradiation, unanesthetized mice were placed in lead jigs through which established tumors in the hind quarter were protruded for irradiation to an area of approximately 2 cm diameter. Irradiation was performed with a Phillips X-ray unit operated at 200 kV with the dose rate of 1.21 Gy/min (20 mÅ with added filtration of 0.5 mm copper, the distance from X-ray source to the target of 31 cm, and a half value layer of 1.3 mm copper).
# Cell preparation, splenectomy, and collection of T cells for autologous transplantation. Single cell suspensions of bone marrow and spleen were prepared according to previously described procedures. […]
# FACS Aria (Becton Dickinson, Mountain View, Calif.) was used for analysis with FlowJo software (TreeStar, Ashland, Oreg.). After sorting cells were checked by FACS reanalysis and determined to be >99% pure. […]
# CT26 luc+ tumor cells = assay: Bioluminescence imaging of luciferase transduced CT26 tumors in RAG2-/- mice given LTI and CY with or without T cells; set-up: species or system BALB/c RAG2-/- mice; conditions: mouse, in vivo
# Text: Cell lines. The CT26 cell line (an N-nitro-N-methylurethane-induced BALB/c murine colon carcinoma) was purchased from ATCC (Manassas, Va.). The 4T1 cell line (spontaneously arising) was also obtained from ATCC. The 4T1-LUC/GFP and CT26-LUC/GFP cell lines were lentiviraly transduced. The lentiviral vector pHR-IG was made by Dr. Yoshitaka Akagi. The GFP-firefly luciferase fusion (GLF) gene was subcloned from pJW.GFP-yLuc (kindly provided by Dr. M. H. Bachmann) into pHR2 to generate pHR2-GLF. Lentiviral particles expressing GLF were prepared as described before. […]. WT 4T1 and CT26 cells were seeded in a 6 well plate at 0.25×10^6 cells/well and incubated overnight in a 37° C. incubator. Titrated virus was then used to transduce the cell lines in the presence of protamine sulfate (10 μg/ml) to enhance transduction efficiency. Stable lentiviral transductants were then sorted 4 times for GFP fluorescence (100% purity) using a FACS DIVA cell sorter. Sorted cells were expanded and screened for bioluminescence using an Xenogen IVIS spectrum (Caliper Life Sciences; Hopkinton, Mass.), as well as GFP. Cell lines were maintained in RPMI-1640 complete medium supplemented with 10% fetal calf serum, L-glutamine, 2 mercaptoethanol, streptomycin and penicillin.
# In vivo BLI imaging. In vivo BLI was performed according to the method of Edinger et al. Briefly, mice were injected intraperitoneally with luciferin ([…]). Ten minutes later, mice were imaged using an IVIS100 charge-coupled device imaging system (Xenogen) for 5 minutes. Imaging data were analyzed and quantified with Living Image software (Xenogen).
# 4T1 luc+ breast tumor = assay: 4T1 breast tumor metastasis model: LTI (3 daily doses of 20 Gy), CY and cryopreserved autologous T cells; format: in vivo, BALB/c mice; conditions: 21 day 4T1 tumors; 3 daily doses of 20 Gy LTI, then single dose of CY
# Protocol: Irradiation. […] For local tumor irradiation, unanesthetized mice were placed in lead jigs through which established tumors in the hind quarter were protruded for irradiation to an area of approximately 2 cm diameter. Irradiation was performed with a Phillips X-ray unit operated at 200 kV with the dose rate of 1.21 Gy/min (20 mÅ with added filtration of 0.5 mm copper, the distance from X-ray source to the target of 31 cm, and a half value layer of 1.3 mm copper).
# Enriched cells were stained with anti-TCR-allophycocyanin (APC) and anti-CD4 or anti-CD8-fluorescein isothiocyanate (FITC) mAbs to check for purity, and preparations were uniformly at least 95% pure.
# FACS Aria (Becton Dickinson, Mountain View, Calif.) was used for analysis with FlowJo software (TreeStar, Ashland, Oreg.). After sorting cells were checked by FACS reanalysis and determined to be >99% pure. Collected T cells were cryopreserved with 10% DMSO and frozen in liquid nitrogen.
# In vivo BLI imaging. In vivo BLI was performed according to the method of Edinger et al. Briefly, mice were injected intraperitoneally with luciferin (10 μg/g body weight). Ten minutes later, mice were imaged using an IVIS100 charge-coupled device imaging system (Xenogen) for 5 minutes. Imaging data were analyzed and quantified with Living Image software (Xenogen).
structure (smiles),measurement,setting,value
"O=P1(N(CCCl)CCCl)NCCCO1 (stereo not shown) [CY, cyclophosphamide]",survival (none of the mice survived beyond),CT26 tumors,≤ 80 days
same,day by which all of the mice died,CT26 luc+ tumor cells,≤ 107
same,death or survival of mice by day 35,CT26 luc+ tumor cells,2 of 5
same,tumor signal / tumor growth by BLI,CT26 luc+ tumor cells,continued tumor growth
same,mice died by day 84,4T1 luc+ breast tumor,6 of 8
same,mice relapsed at day 98,4T1 luc+ breast tumor,1
same,tumor growth,4T1 luc+ breast tumor,progression of tumor growth was slowed
